In US11167007B2, “FOXM1 modulators and uses thereof” (City of Hope, priority 2016, dated 2021):

Columns and labels:
β-catenin = assay: Western blot of β-catenin in nuclear and cytoplasmic fractions of GT1-7 cells; format: cell-based, murine; settings: nuclear fraction, FIG. 3D
Text: (§1) Western Blot. Cell lysates was separated on a 6% SDS page gel and transferred to a nitrocellulose membrane. The membrane was blocked for one hour in 5% skim milk dissolved in TBS-T and probed with the following antibodies ([…]): FoxM1 (rabbit, GeneTex), AR: 441 (mouse, Santa Cruz Biotechnology), β-catenin (rabbit 9562, Cell Signaling Technology), p84 (mouse, GeneTex) and actin (mouse, Santa Cruz Biotechnology). Horse radish peroxidase linked secondary antibodies were used along with ECL reagents for visualization. Western blots were quantified using Quantity One analysis software (BioRad).
It has been previously reported that thiostrepton causes decreased levels of FOXM1. Hegde et al, Nat Chem, 3(9):725-31 (2011); Gartel, Front Oncol, 3:150 (2013). […] The nuclear association between FOXM1 and β-catenin increases the transcriptional activity of both factors. Zhang et al, Cancer Cell, 20(4):427-42 (2011). β-catenin is a key AR coactivator in a variety of cells. Yang, J Biol Chem, 277(13):11336-44 (2002); Truica et al, Cancer Res, 60(17):4709-13 (2000). The inventors believed that thiostrepton could inhibit AR activity by limiting access to nuclear β-catenin via FOXM1 depletion. […] As expected, control actin protein was observed primarily in cytoplasmic fraction.

FOXM1/β-catenin = molecular target: T1, FOXM1/β-catenin (Mus musculus, UniProt O08696); assay: Co-immunoprecipitation of β-catenin from GT1-7 cell lysates, Western blot for FOXM1; format: cell-based, murine; settings: FIG. 3E
T1 construct: endogenous in cells; host or cells: GT1-7
T1 sequence (O08696 1-760): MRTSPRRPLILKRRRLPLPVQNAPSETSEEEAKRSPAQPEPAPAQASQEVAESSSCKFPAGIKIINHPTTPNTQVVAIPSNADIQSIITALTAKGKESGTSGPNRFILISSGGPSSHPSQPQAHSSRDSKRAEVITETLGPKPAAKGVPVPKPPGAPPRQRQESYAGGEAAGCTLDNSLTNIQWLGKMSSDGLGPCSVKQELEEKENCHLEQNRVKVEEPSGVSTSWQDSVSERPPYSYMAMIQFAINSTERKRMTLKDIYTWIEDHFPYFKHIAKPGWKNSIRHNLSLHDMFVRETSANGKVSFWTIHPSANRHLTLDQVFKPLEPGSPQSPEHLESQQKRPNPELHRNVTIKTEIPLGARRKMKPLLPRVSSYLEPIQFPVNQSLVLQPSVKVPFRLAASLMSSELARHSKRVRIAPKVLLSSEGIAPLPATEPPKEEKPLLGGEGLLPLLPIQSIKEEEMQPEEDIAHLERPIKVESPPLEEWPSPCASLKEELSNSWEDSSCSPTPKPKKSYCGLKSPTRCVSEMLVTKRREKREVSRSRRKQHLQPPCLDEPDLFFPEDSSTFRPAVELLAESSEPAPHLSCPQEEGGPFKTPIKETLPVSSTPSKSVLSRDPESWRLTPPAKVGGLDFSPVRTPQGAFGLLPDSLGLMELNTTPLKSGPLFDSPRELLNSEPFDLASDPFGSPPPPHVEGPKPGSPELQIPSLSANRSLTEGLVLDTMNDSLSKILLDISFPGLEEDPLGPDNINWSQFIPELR
Description: Immunoprecipitation (IP). The co-IP assay was performed as described by Zhang et al, Cancer Cell, 20(4):427-42 (2011). In brief, cells were lysed on ice for 20 minutes in co-IP buffer containing 10 mmol/L Hepes (pH8), 300 mmol/L NaCL, 0.1 mmol/L EDTA, 20% glycerol, 0.2% NP-40 and protease inhibitor (Roche Diagnostics). Lysate was centrifuged at 10000 g for 10 minutes at 4° C. Lysate was incubated with primary antibody (β-catenin: rabbit, 9562, Cell Signaling Technology) overnight at 4° C. followed by incubation with 30 uL of Protein A/G beads for 2 hours at 4° C. Collected protein complexes were washed and analyzed by Western blotting.
as §1
Co-immunoprecipitation confirmed a direct interaction between β-catenin and FOXM1 as well as between β-catenin and AR (FIG. 3E). […]

[1] = molecular target: T2, AR with a 24 glutamine tract (normal) (Homo sapiens, UniProt P10275, DUP80-80); assay: Luciferase reporter assay in HEK293 cells transfected with ARQ24; format: cell-based; settings: HEK293, AR 24 glutamines, FIG. 2C
T2 construct: expressed in transfected cells; host or cells: HEK293
T2 sequence (P10275 with tags, fused parts or gaps DUP80-80): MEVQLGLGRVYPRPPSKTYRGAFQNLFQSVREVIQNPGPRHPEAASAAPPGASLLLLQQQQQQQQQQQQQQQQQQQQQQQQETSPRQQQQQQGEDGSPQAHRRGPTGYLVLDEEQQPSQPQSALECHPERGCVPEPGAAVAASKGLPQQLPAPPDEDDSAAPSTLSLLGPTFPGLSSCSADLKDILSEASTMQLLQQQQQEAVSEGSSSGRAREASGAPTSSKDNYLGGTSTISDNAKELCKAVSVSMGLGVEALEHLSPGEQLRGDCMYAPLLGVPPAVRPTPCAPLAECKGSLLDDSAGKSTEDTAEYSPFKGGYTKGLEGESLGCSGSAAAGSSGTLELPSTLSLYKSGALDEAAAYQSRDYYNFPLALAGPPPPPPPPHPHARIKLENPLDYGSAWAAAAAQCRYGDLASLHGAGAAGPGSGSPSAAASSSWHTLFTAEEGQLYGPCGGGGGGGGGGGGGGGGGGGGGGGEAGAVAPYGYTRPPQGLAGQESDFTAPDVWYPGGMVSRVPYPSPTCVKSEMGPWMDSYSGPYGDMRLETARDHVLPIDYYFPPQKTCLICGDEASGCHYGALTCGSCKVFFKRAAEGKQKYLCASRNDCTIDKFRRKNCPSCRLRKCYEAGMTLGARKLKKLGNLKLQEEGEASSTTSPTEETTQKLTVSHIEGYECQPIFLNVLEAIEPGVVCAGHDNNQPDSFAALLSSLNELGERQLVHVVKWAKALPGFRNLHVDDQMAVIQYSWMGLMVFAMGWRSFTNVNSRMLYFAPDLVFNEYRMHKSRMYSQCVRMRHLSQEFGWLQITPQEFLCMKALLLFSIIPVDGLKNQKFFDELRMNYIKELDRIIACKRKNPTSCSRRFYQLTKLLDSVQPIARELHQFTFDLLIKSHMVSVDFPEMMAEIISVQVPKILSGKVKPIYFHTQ
Text: Luciferase Reporter Assay. Cells were transfected using Lipofectamine Plus (Invitrogen) with a normalization plasmid (pRL-SV40, Promega) and an androgen responsive plasmid (MMTV-luciferase or PSA-luciferase) as described in Jones et al, ACS Chem Biol, 3(7):412-8 (2008), and, where indicated, with an shRNA plasmid targeting FOXM1 (adapted for mouse FOXM1 sequence targeting) a scrambled control shRNA plasmid, or ARQ24 or ARQ65 plasmids. Christensen et al, PLoS One, 8(1):e54556 (2013). The following day, cells and drugs were distributed to 96-well plates. 24 hours later, luciferase activity was assessed by a dual luciferase assay kit (Promega) on the Tecan plate reader. Samples were run in quadruplicates and a Student's t test was performed to determine significance, where p<0.05 was considered significant.
SBMA is caused by the activity of polyglutamine-expanded AR, and experiments were conducted to investigate the effects of thiostrepton against polyglutamine-expanded AR. AR-negative HEK293 cells were transfected with plasmids encoding AR with a 24 glutamine tract (normal) or with a 65 glutamine tract (disease associated). The polyglutamine-expanded AR was less transcriptionally active than the normal AR, as has been previously documented for such constructs. Kazemi-Esfarjani et al, Hum Mol Genet, 4:523-527 (1995).

Structure (SMILES): C=C(NC(=O)C(=C)NC(=O)c1csc(C2=N[C@@H]3c4csc(n4)[C@H]4NC(=O)c5csc(n5)[C@H]([C@](C)(O)[C@@H](C)O)NC(=O)[C@H]5CSC(=N5)/C(=C/C)NC(=O)[C@H]([C@@H](C)O)NC(=O)c5csc(n5)[C@]3(CC2)NC(=O)[C@H](C)NC(=O)C(=C)NC(=O)[C@H](C)NC(=O)[C@H]([C@@H](C)CC)N[C@@H]2C=Cc3c([C@H](C)O)cc(nc3[C@H]2O)C(=O)O[C@@H]4C)n1)C(N)=O [thiostrepton]
- levels of nuclear β-catenin (β-catenin): lower levels
- amount of FOXM1 pulled down with β-catenin (FOXM1/β-catenin): reduced
- inhibition of non-expanded AR activity (luciferase) [1]: inhibited
